Test results published in paper PMC6327989 (Journal of Enzyme Inhibition and Medicinal Chemistry, 2019).

Target: recombinant Sphingomyelinase D (SMase D) from L. laeta venom (Loxosceles laeta, UniProt Q8I914)
Experiment: biochemical

recombinant Sphingomyelinase D (SMase D) from L. laeta venom, sequence (Q8I914 27-311 limits assumed): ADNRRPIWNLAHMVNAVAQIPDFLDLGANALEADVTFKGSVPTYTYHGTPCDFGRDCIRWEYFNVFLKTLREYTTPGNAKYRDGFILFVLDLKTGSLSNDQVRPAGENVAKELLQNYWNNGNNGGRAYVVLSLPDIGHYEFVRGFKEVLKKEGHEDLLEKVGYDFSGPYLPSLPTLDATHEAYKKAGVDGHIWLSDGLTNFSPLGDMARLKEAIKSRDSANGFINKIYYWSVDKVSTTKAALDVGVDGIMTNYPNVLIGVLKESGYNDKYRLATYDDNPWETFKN

| Compound | Ki |
| --- | --- |
| Cc1[nH]c2ccccc2c1/C=N/NS(=O)(=O)c1ccc(Br)cc1 [compound 5, 4-bromo-N-[(E)-(2-methyl-1H-indol-3-yl)methyleneamino]benzenesulfonamide] | 490 ± 100 nM |
| Cc1ccc(S(=O)(=O)Oc2cc(N)nc(SCc3ccc(C#N)cc3)n2)cc1 [compound 1, 6-amino-2-((4-cyanobenzyl)thio)pyrimidin-4-yl 4-methylbenzenesulphonate] | 540 ± 130 nM |
| Cc1cc(OS(=O)(=O)c2ccc(Cl)cc2)cc2c1C(=O)/C(=C/c1cccnc1)O2 [compound 6, 4-methyl-3-oxo-2–(3-pyridylmethylene)benzo[3,4-b]furan-6-yl 4-chlorobenzenesulphonate] | 590 ± 230 nM |
